# Assay results published in patent US11299760B2 (Amgen Inc., priority 2013, dated 2022).
# How the values were obtained:
# [1] = tested on: production cell lines (MAb A, MAb B, MAb C, MAb D); assay: mock perfusion assay, glycan analysis, all four production cell lines; type: cell-based, Chinese hamster
# Protocol: Mock perfusion assay is a small scale, plate-based assay that is designed to mimic perfusion conditions in bioreactors through daily medium exchanges. For a 10-day mock perfusion assay, passaging cultures of various production cell lines were diluted 1:5 into chemically defined base perfusion medium in a 24 deep-well plate at a final volume of 3 ml per well. Mock perfusion was initiated on day 3 when the cells were spun down at 1000 rpm for 5 minutes and 25% of each spent culture medium was exchanged with the equivalent volume of fresh perfusion media. Subsequent medium exchange percentages were 40% on days 4-8 and 50% on day 9. Exchanged supernatants were stored at 4° C. prior to analysis.
# Analysis of cell culture parameters was also started on day 3; viable cell density and viability were analyzed using the ViaCount Guava assay as previously described. Glucose was measured daily starting on day 3 and was maintained at 12 g/l. Stored supernatants were analyzed for antibody titer as described previously. Samples of supernatant fluid from days 6, 8 and 10 were also analyzed for the presence and type of glycans by HILIC analysis.
# The cell lines used included three production cell lines that are known to generate mAbs with low high mannose glycans (MAb A, MAb B and MAb C) and one production cell line that consistently produces product with high levels of high mannose glycans (MAb D). […]
# [2] = tested on: recombinant CHO cell line producing an antibody (MAb A); assay: six day batch assay, cell culture parameters (VCD, viability, titer); type: cell-based, Chinese hamster; conditions: for Titer / VCD / Viability: day 6
# Protocol: Cells were centrifuged at 1500 rpm for five minutes and seeded at 2×10^6 cells per ml into batch production medium in a 24 deep-well plate at a final volume of 3 ml.
# Cell density and viability were measured by Guava easyCyte flow cytometer (Milipore, Billerica, Mass.) with the ViaCount application. Cultures were spun down, supernatants were filtered on 0.4 micron filters, and were analyzed for titer and glycan distribution.
# Antibody titer was measured by loading filtered cell culture supernatants over a POROS A/20 Protein A column (Applied Biosystems, Carlsbad, Calif.) equilibrated with 20 mM Tris, […], pH 7.0 buffer. Antibody elution was performed with 220 mM acetic acid, […], pH 2.6 buffer at a mobile phase flow rate of 4.0 ml/min. Eluted antibody was detected at a wavelength of 280 nm. Antibody concentration was determined based on a standard curve with a reference antibody standard. For high molecular weight measurement, antibodies were purified from spent medium supernatants on ATOLL columns (ATOLL-Bio Inc USA, Lawrance, Kans.) and were then analyzed using size exclusion chromatography.
# Cell culture performance was assessed via viable cell density (VCD), viability and titer measurements of harvested samples. Each bar represents an average result for duplicate cell culture samples. Each value is an average of duplicates.
structure (smiles),measurement,setting,value
CC[C@@]1([C@@H]2O[C@@H]([C@H]3O[C@@](O)(CO)[C@H](C)C[C@@H]3C)C[C@@H]2C)CC[C@H]([C@]2(C)CC[C@]3(C[C@H](O)[C@@H](C)[C@@H]([C@@H](C)[C@@H](OC)[C@H](C)C(=O)O)O3)O2)O1 [monensin],effect on high mannose glycans,"[1]; all four antibody products, mock perfusion",increased high mannose glycans on all four antibody products tested in a dose dependent manner
same,increase of high mannose levels compared to the control samples,"[1]; antibodies collected on day 10, depending on the monensin dose",1.5 to 15 fold
same,Titer,[2]; 0.1 nM monensin added day 1,3.835 g/L
same,VCD,[2]; 0.1 nM monensin added day 1,10 10^6c/ml
same,Viability,[2]; 0.1 nM monensin added day 1,81%
same,Titer,[2]; 0.5 nM monensin added day 1,4.415 g/L
same,VCD,[2]; 0.5 nM monensin added day 1,11 10^6c/ml
same,Viability,[2]; 0.5 nM monensin added day 1,81%
same,Titer,[2]; 1 nM monensin added day 1,4.265 g/L
same,VCD,[2]; 1 nM monensin added day 1,11 10^6c/ml
same,Viability,[2]; 1 nM monensin added day 1,82%
same,Titer,[2]; 5 nM monensin added day 1,3.45 g/L
same,VCD,[2]; 5 nM monensin added day 1,11 10^6c/ml
same,Viability,[2]; 5 nM monensin added day 1,82%
same,Titer,[2]; 10 nM monensin added day 1,3.635 g/L
same,VCD,[2]; 10 nM monensin added day 1,11 10^6c/ml
same,Viability,[2]; 10 nM monensin added day 1,81%
same,impact on cell culture parameters,[2]; 25 nM bolus on day 0 or 200 nM or 100 nM bolus on day 3,no negative impact on cell culture parameters
same,Titer,[2]; 25 nM monensin added day 1,5.22 g/L
same,VCD,[2]; 25 nM monensin added day 1,11 10^6c/ml
same,Viability,[2]; 25 nM monensin added day 1,85%
same,Titer,[2]; 50 nM monensin added day 1,2.025 g/L
same,VCD,[2]; 50 nM monensin added day 1,5 10^6c/ml
same,Viability,[2]; 50 nM monensin added day 1,72%
same,Titer,[2]; 100 nM monensin added day 3,3.515 g/L
same,VCD,[2]; 100 nM monensin added day 3,11 10^6c/ml
same,Viability,[2]; 100 nM monensin added day 3,86%
same,Titer,[2]; 200 nM monensin added day 3,4.43 g/L
same,VCD,[2]; 200 nM monensin added day 3,11 10^6c/ml
same,Viability,[2]; 200 nM monensin added day 3,87%
same,Titer,[2]; 500 nM monensin added day 3,3.055 g/L
same,VCD,[2]; 500 nM monensin added day 3,5 10^6c/ml
same,Viability,[2]; 500 nM monensin added day 3,41%
